Measured values from patent publication US8653074B2, “Substituted sodium 1H-pyrazol-5-olate” (Bayer Intellectual Property GmbH, priority 2010, dated 2014).

Legend:
[1] = Vapour adsorption and vapour desorption (moisture sorption isotherm); format: physicochemical; conditions: for Adsorption / Desorption: 25° C.
Protocol: Vapour Adsorption and Vapour Desorption:
The moisture sorption isotherm was recorded using a Dynamic Vapour Sorption Analyzer IGA Sorp from Hiden Analytical. The measuring temperature was 25° C. There was no sample preparation.

[2] = as above; format: physicochemical; conditions: customary environmental conditions (20-35° C., atmospheric pressure)
Solubility in water = format: physicochemical; conditions: for solubility thermodynamic at 16 h: thermodynamic from solid, water, 25° C., stirred 16 hours, HPLC
Protocol: Method: Saturated solutions of the test substance were prepared by stirring a suspension in water at 25° C. for 16 hours. The suspensions obtained were then filtered, and the content in the filtrate was determined by HPLC.

[3] = system: recombinant A549 cell line with luciferase reporter under hypoxia-responsible elements; experiment: Cellular, functional in vitro test (luciferase reporter under hypoxia-responsible elements); format: cell-based; conditions: Homo sapiens
Text: 1.b) Cellular, Functional in vitro Test:
The activity of the compounds according to the invention is quantified with the aid of a recombinant cell line. The cell is originally derived from a human lung carcinoma cell line (A549, ATCC: American Type Culture Collection, Manassas, Va. 20108, USA). The test cell line is transfected in a stable manner with a vector which contains the reporter gene of Photinus pyralis luciferase (called luciferase in the following) under the control of an artificial minimal promoter. […] Under the effect of hypoxia (e.g. culturing in the presence of 1% oxygen for 24 hours) or under the action of non-selective dioxygenase inhibitors (e.g. desferroxamine in a concentration of 100 μM, cobalt chloride in a concentration of 100 μM or N-oxalylglycine diethyl ester in a concentration of 1 mM), the test cell line produces luciferase, which can be detected and quantified with the aid of suitable bioluminescence reagents (e.g. Steady-Glo® Luciferase Assay System, Promega Corporation, Madison, Wis. 53711, USA) and a suitable luminometer.
On the day before the test, the cells are plated out in an exactly calculated amount of culture medium (DMEM, 10% FCS, 2 mM glutamine) in 384- or 1,536-well microtiter plates and kept in a cell incubator (96% atmospheric humidity, 5% v/v CO2, 37° C.). […]

EGLN2/PHD1 = molecular target: T1, EGLN2/PHD1 (Homo sapiens, UniProt Q96KS0); experiment: Inhibition of the activity of HIF prolyl hydroxylase (VBC complex binding test); format: biochemical; conditions: mean for EGLN2/PHD1
T1 construct: host or cells: cell lysate
T1 sequence (Q96KS0 whole entry): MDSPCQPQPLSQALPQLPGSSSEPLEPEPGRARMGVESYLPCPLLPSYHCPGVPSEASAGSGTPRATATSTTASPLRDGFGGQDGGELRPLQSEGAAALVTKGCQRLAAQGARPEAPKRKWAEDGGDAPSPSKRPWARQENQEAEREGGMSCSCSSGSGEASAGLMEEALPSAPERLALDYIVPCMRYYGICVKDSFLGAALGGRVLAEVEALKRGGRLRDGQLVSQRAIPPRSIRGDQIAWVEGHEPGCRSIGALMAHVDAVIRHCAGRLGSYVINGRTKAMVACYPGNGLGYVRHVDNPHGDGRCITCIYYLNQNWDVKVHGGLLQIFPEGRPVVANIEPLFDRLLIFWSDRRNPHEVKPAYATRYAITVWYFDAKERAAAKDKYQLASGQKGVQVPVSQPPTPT
Protocol: The test is carried out as described [Oehme F., Jonghaus W., Narouz-Ott L., Huetter J., Flamme I., Anal. Biochem. 330 (1), 74-80 (2004)]:
A clear 96-well microtiter plate coated with NeutrAvidin HBC (Pierce) is incubated with blocker casein for 30 minutes. The plate is then washed three times with 200 μl each time of wash buffer (50 mM Tris, pH 7.5, 100 mM NaCl, 10% (v/v) blocker casein, 0.05% (v/v) Tween 20) per well. The peptide biotin-[sequence] (Eurogentec, 4102 Seraing, Belgium) is added in a concentration of 400 nM in 100 μl wash buffer. This peptide serves as a substrate for the prolyl hydroxylation and is bonded to the microtiter plate. After incubation for 60 minutes, the plate is washed three times with wash buffer, incubated with 1 mM biotin in blocker casein for 30 minutes and then washed again three times with wash buffer.
To carry out the prolyl hydroxylase reaction, the peptide substrate bonded to the plate is incubated with a cell lysate containing prolyl hydroxylase for 1 to 60 minutes. […]

EGLN1/PHD2 = EGLN1/PHD2 (Homo sapiens, UniProt Q9GZT9); experiment: biochemical
Sequence of EGLN1/PHD2 (Q9GZT9 whole entry): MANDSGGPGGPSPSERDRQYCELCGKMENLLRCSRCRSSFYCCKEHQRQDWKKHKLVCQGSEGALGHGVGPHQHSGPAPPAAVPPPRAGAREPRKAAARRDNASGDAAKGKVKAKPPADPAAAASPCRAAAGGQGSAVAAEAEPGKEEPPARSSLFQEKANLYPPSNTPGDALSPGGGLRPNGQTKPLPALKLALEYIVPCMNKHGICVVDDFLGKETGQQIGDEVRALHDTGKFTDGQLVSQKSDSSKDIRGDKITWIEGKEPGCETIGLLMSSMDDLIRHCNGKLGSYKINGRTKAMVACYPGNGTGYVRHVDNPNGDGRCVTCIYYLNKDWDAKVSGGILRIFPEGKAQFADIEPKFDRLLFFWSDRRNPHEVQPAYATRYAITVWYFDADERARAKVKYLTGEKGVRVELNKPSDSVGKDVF
Protocol: Hydroxylated HIF bonds specifically to the von Hippel-Lindau protein-elongin B-elongin C complex (VBC complex). This interaction occurs only if HIF is hydroxylated on a conserved prolyl radical. It is the basis for the biochemical determination of HIF prolyl hydroxylase activity.
A clear 96-well microtiter plate coated with NeutrAvidin HBC (Pierce) is incubated with blocker casein for 30 minutes. The plate is then washed three times with 200 μl each time of wash buffer (50 mM Tris, pH 7.5, 100 mM NaCl, 10% (v/v) blocker casein, 0.05% (v/v) Tween 20) per well. […] This peptide serves as a substrate for the prolyl hydroxylation and is bonded to the microtiter plate. After incubation for 60 minutes, the plate is washed three times with wash buffer, incubated with 1 mM biotin in blocker casein for 30 minutes and then washed again three times with wash buffer. […]
For quantitative determination of the prolyl hydroxylation, a fusion protein which contains both thioredoxin from E. coli and the VBC complex in 80 μl bonding buffer (50 mM Tris, pH 7.5, 120 mM NaCl) is added. […] The amount of bonded VBC complex is determined by measurement of the optical density at 450 nm. […]
Alternatively, a VBC complex coupled to europium (Perkin Elmer) can be used for detection of the prolyl hydroxylation. In this case, the amount of bonded VBC complex is determined by the fluorescence with respect to time.

**Q.** What does the source list for `Oc1c(-n2ccnn2)cnn1-c1cc(N2CCOCC2)ncn1` [Compound of the formula (I), 1-[6-(morpholin-4-yl)pyrimidin-4-yl]-4-(1H-1,2,3-triazol-1-yl)-1H-pyrazol-5-ol, reference compound]?
**A.** Adsorption ([1]; 0% rh): 0.1%; Desorption ([1]; 5% rh (printed in the 0% rh line)): 0.1% (5% rh); Adsorption ([1]; 10% rh): 0.2%; Desorption ([1]; 10% rh): 0.1%; Adsorption ([1]; 20% rh): 0.3%; Desorption ([1]; 20% rh): 0.2%; uptake of water ([1]; 20-35° C., atmospheric pressure, relative atmospheric humidity above 20% rh): up to 6 % by weight; Adsorption ([1]; 30% rh): 4.8%; Desorption ([1]; 30% rh): 4.7%; Adsorption ([1]; 40% rh): 5.1%; Desorption ([1]; 40% rh): 5.2%; Adsorption ([1]; 50% rh): 5.3%; Desorption ([1]; 50% rh): 5.4%; Adsorption ([1]; 60% rh): 5.4%; Desorption ([1]; 60% rh): 5.6%; Adsorption ([1]; 70% rh): 5.6%; Desorption ([1]; 70% rh): 5.6%; Adsorption ([1]; 80% rh): 5.7%; Desorption ([1]; 80% rh): 5.7%; Adsorption ([1]; 90% rh): 5.9%; Desorption ([1]; 90% rh): 5.9%; hygroscopicity [2]: hygroscopic; solubility thermodynamic at 16 h (Solubility in water): 0.143 mg/mL

**Q.** With `[Na+].[O-]c1c(-n2ccnn2)cnn1-c1cc(N2CCOCC2)ncn1` [Compound of the formula (II), sodium 1-[6-(morpholin-4-yl)pyrimidin-4-yl]-4-(1H-1,2,3-triazol-1-yl)-1H-pyrazol-5-olate] as the molecule, how does the EC50 [3] read?
**A.** Its EC50 is 0.007 µM.

**Q.** And the water content [1]?
**A.** The water content was “less than 0.5 % by weight”.

**Q.** And the Adsorption ([1]; 0% rh)?
**A.** Its Adsorption is 0%.

**Q.** And the Desorption ([1]; 0% rh)?
**A.** Its Desorption is 0%.

**Q.** And the Adsorption ([1]; 10% rh)?
**A.** The Adsorption was 0%.

**Q.** What about the Desorption ([1]; 10% rh) of the same molecule?
**A.** The Desorption was 0%.

**Q.** What about the Adsorption ([1]; 20% rh) of the same molecule?
**A.** Its Adsorption is 0.1%.

**Q.** And the Desorption ([1]; 20% rh)?
**A.** The Desorption was 0%.

**Q.** What about the “change of water content” value ([1]; 20-35° C., atmospheric pressure, atmospheric humidity of up to 90% rh) of the same molecule?
**A.** The value was “less than 0.5 % by weight”.

**Q.** What about the Adsorption ([1]; 30% rh) of the same molecule?
**A.** Its Adsorption is 0.1%.

**Q.** And the Desorption ([1]; 30% rh)?
**A.** The Desorption was 0.1%.

**Q.** And the Adsorption ([1]; 40% rh)?
**A.** Its Adsorption is 0.2%.

**Q.** And the Desorption ([1]; 40% rh)?
**A.** Its Desorption is 0.2%.

**Q.** What about the Adsorption ([1]; 50% rh) of the same molecule?
**A.** The Adsorption was 0.2%.

**Q.** And the Desorption ([1]; 50% rh)?
**A.** The Desorption was 0.3%.

**Q.** What about the Adsorption ([1]; 60% rh) of the same molecule?
**A.** Its Adsorption is 0.2%.

**Q.** And the Desorption ([1]; 60% rh)?
**A.** The Desorption was 0.3%.

**Q.** And the Adsorption ([1]; 70% rh)?
**A.** Its Adsorption is 0.4%.

**Q.** And the Desorption ([1]; 70% rh)?
**A.** Its Desorption is 0.4%.

**Q.** What about the Adsorption ([1]; 80% rh) of the same molecule?
**A.** Its Adsorption is 0.4%.

**Q.** What about the Desorption ([1]; 80% rh) of the same molecule?
**A.** The Desorption was 0.5%.

**Q.** What about the Adsorption ([1]; 90% rh) of the same molecule?
**A.** Its Adsorption is 0.8%.

**Q.** What about the Desorption ([1]; 90% rh) of the same molecule?
**A.** Its Desorption is 0.8%.

**Q.** And the IC50 (EGLN2/PHD1)?
**A.** The IC50 was 0.47 µM.

**Q.** And the IC50 (EGLN1/PHD2)?
**A.** The IC50 was 0.14 µM.

**Q.** What about the hygroscopicity [2] of the same molecule?
**A.** The hygroscopicity was “not hygroscopic”.

**Q.** What about the “solubility in water compared to the compound of the formula (I)” value (Solubility in water) of the same molecule?
**A.** Its value is “higher solubility in water”.

**Q.** What about the solubility thermodynamic at 16 h (Solubility in water) of the same molecule?
**A.** The solubility thermodynamic at 16 h was 28 mg/mL.
